Measured values reported in patent publication US9216991B2 (Ares Trading S.A., priority 2012, dated 2015).
pIC50: −log10 of the molar value. Structures can show the parent of a compound that is named as a salt.

Target: T1, IRAK4 (Homo sapiens, UniProt Q9NWZ3)
T1 construct: His (N); TEV cleavage site (N)
T1 sequence (Q9NWZ3 1-460): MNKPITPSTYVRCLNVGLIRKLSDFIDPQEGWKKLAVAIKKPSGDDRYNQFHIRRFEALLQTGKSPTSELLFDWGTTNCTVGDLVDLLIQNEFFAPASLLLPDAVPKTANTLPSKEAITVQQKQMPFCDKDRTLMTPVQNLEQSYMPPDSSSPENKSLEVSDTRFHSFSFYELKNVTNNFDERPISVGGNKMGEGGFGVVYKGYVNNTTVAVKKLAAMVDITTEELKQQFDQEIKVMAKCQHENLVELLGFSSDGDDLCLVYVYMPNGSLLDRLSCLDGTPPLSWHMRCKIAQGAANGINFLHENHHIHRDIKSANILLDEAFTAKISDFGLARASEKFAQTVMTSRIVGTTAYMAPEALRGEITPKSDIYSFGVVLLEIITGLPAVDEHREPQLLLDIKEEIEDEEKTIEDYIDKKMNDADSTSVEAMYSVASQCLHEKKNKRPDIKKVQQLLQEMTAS
Test: IRAK4 Enzymatic Assay
Assay type: biochemical
Conditions: His-TEV-IRAK4 20 ng/well, ATP 2 μM, STK1-biotin peptide 300 nM, 3 hours at 30° C., FlashPlate radioactivity
How it was run: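 Radiometric FlashPlate readout: biotin-STK1 substrate (300 nM) captured on streptavidin after EDTA stop and washes. Reaction used His-TEV-IRAK4 (20 ng/well), 2 μM [^33P]-spiked ATP and compound (1 nM-20 μM), incubated 3 h at 30 °C in 50 mM HEPES pH 7.0, 10 mM MgCl2, 5 mM MnCl2, 2 mM DTT.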

Question: `CC(=O)N1CC[C@@H](n2cc(-c3cnc(-c4cccc(-c5cnn(C)c5)c4)nc3)cn2)C[C@H]1C` [Example 249, 1-[(2R,4R)-2-Methyl-4-(4-{2-[3-(1-methyl-1H-pyrazol-4-yl)-phenyl]-pyrimidin-5-yl}-pyrazol-1-yl)-piperidin-1-yl]-ethanone] was tested. Which pIC50 did it give?
Answer: 6.00 to 7.00

Question: With `Cn1cc(-c2cccc(-c3ncc(-c4cnn([C@H]5CC[C@H](C(=O)N6CCOCC6)CC5)c4)cn3)c2)cn1` [Example 162, Trans-[4-(4-{2-[3-(1-Methyl-1H-pyrazol-4-yl)-phenyl]-pyrimidin-5-yl}-pyrazol-1-yl)-cyclohexyl]-morpholin-4-yl-methanone] as the compound, how does the pIC50 read?
Answer: > 7.00

Question: How did the pIC50 turn out when `COc1ccc(CCn2cc(-c3cnc(-c4cccc(-c5cnn(C)c5)c4)nc3)cn2)cc1OC` [Example 96, 5-{1-[2-(3,4-Dimethoxy-phenyl)-ethyl]-1H-pyrazol-4-yl}-2-[3-(1-methyl-1H-pyrazol-4-yl)-phenyl]-pyrimidine] was run?
Answer: 6.00 to 7.00

Question: With `CC(=O)N1CCC(n2cc(-c3cnc(-c4cccc(-c5cnn(C)c5)c4)nc3)cn2)C(F)C1` (stereo not drawn) [Example 263, Cis-1-[3-Fluoro-4-(4-{2-[3-(1-methyl-1H-pyrazol-4-yl)-phenyl]-pyrimidin-5-yl}-pyrazol-1-yl)-piperidin-1-yl]-ethanone] as the compound, how does the pIC50 read?
Answer: > 7.00

Question: How did the pIC50 turn out when `CNC(=O)c1nn(C)cc1-c1cnc(-c2cccc(-c3cnn(C)c3)c2)nc1` [Example 144, 1-Methyl-4-{2-[3-(1-methyl-1H-pyrazol-4-yl)-phenyl]-pyrimidin-5-yl}-1H-pyrazole-3-carboxylic acid methylamide] was run?
Answer: 5.30 to 6.00

Question: With `O=C(Cn1cc(-c2cnc(-c3cccc(-c4cnco4)c3)nc2)cn1)N1CCOCC1` [Example 78, 1-Morpholin-4-yl-2-{4-[2-(3-oxazol-5-yl-phenyl)-pyrimidin-5-yl]-pyrazol-1-yl}-ethanone] as the compound, how does the pIC50 read?
Answer: 6.00 to 7.00

Question: With `CO[C@H]1CN(C(=O)[C@H]2CC[C@H](n3cc(-c4cnc(-c5cccc(-c6cnn(C)c6)c5)nc4)cn3)CC2)C[C@@H]1O` (relative stereo) [Example 245, (Trans-3-Hydroxy-4-methoxy-pyrrolidin-1-yl)-[4-Trans-(4-{2-[3-(1-methyl-1H-pyrazol-4-yl)-phenyl]-pyrimidin-5-yl}-pyrazol-1-yl)-cyclohexyl]-methanone] as the compound, how does the pIC50 read?
Answer: > 7.00

Question: `CNC(=O)C1CC(n2cc(-c3cnc(-c4cccc(-c5cnn(C)c5)c4)nc3)cn2)C1` (stereo not shown) [Example 157, 3-(4-{2-[3-(1-Methyl-1H-pyrazol-4-yl)-phenyl]-pyrimidin-5-yl}-pyrazol-1-yl)-cyclobutanecarboxylic acid methylamide] was tested. Which pIC50 did it give?
Answer: 6.00 to 7.00

Question: `CN(C)C(=O)[C@H]1CC[C@@H](n2cc(-c3cnc(-c4cccc(-c5cnn(C)c5)c4)nc3)cn2)CC1` [Example 135, Cis-4-(4-{2-[3-(1-Methyl-1H-pyrazol-4-yl)-phenyl]-pyrimidin-5-yl}-pyrazol-1-yl)-cyclohexanecarboxylic acid dimethylamide] was tested. Which pIC50 did it give?
Answer: 6.00 to 7.00

Question: `Cn1cc(-c2cccc(-c3ncc(-c4cnn(CCC(=O)N5CC6(COC6)C5)c4)cn3)c2)cn1` [Example 101, 3-(4-{2-[3-(1-Methyl-1H-pyrazol-4-yl)-phenyl]-pyrimidin-5-yl}-pyrazol-1-yl)-1-(2-oxa-6-aza-spiro[3.3]hept-6-yl)-propan-1-one] was tested. Which pIC50 did it give?
Answer: 5.30 to 6.00

Question: With `Cn1cc(-c2cccc(-c3ncc(-c4cnn([C@H]5CCC[C@@H](N6CCOC6=O)C5)c4)cn3)c2)cn1` (relative stereo) [Example 257, 3-[cis-3-(4-{2-[3-(1-Methyl-1H-pyrazol-4-yl)-phenyl]-pyrimidin-5-yl}-pyrazol-1-yl)-cyclohexyl]-oxazolidin-2-one] as the compound, how does the pIC50 read?
Answer: > 7.00

Question: `Cn1cc(-c2cccc(-c3ncc(-c4cnn([C@@H]5CCC[S@@+]([O-])C5)c4)cn3)c2)cn1` (racemic) [Example 235, 2-[3-(1-Methyl-1H-pyrazol-4-yl)-phenyl]-5-[1-(Trans-1-oxo-tetrahydro-thiopyran-3-yl)-1H-pyrazol-4-yl]-pyrimidine] was tested. Which pIC50 did it give?
Answer: 6.00 to 7.00

Question: How did the pIC50 turn out when `CC(=O)N1[C@@H]2CC[C@H]1CC(n1cc(-c3cnc(-c4cccc(-c5cnn(C)c5)c4)nc3)cn1)C2` (stereo partly drawn) [Example 119, 1-[(1R,5S)-3-(4-{2-[3-(1-Methyl-1H-pyrazol-4-yl)-phenyl]-pyrimidin-5-yl}-pyrazol-1-yl)-8-aza-bicyclo[3.2.1]oct-8-yl]-ethanone] was run?
Answer: 6.00 to 7.00

Question: With `CNC(=O)[C@H]1CCC[C@@H](n2cc(-c3cnc(-c4cccc(-c5cnn(C)c5)c4)nc3)cn2)C1` (relative stereo) [Example 180, cis-3-(4-{2-[3-(1-Methyl-1H-pyrazol-4-yl)-phenyl]-pyrimidin-5-yl}-pyrazol-1-yl)-cyclohexanecarboxylic acid methylamide] as the compound, how does the pIC50 read?
Answer: 6.00 to 7.00

Question: `CN1[C@@H]2CC[C@H]1C[C@H](n1cc(-c3cnc(-c4cccc(-c5cnn(C)c5)c4)nc3)cn1)C2` [Example 61, (3-exo)-8-Methyl-3-(4-{2-[3-(1-methyl-1H-pyrazol-4-yl)-phenyl]-pyrimidin-5-yl}-pyrazol-1-yl)-8-aza-bicyclo[3.2.1]octane] was tested. Which pIC50 did it give?
Answer: > 7.00

Question: `Cn1cc(-c2cccc(-c3ncc(-c4cnn([C@H]5CC[C@H](C(=O)NCC(O)CO)CC5)c4)cn3)c2)cn1` (stereo partly drawn) [Example 242, Trans-4-(4-{2-[3-(1-Methyl-1H-pyrazol-4-yl)-phenyl]-pyrimidin-5-yl}-pyrazol-1-yl)-cyclohexanecarboxylic acid (2,3-dihydroxy-propyl)-amide] was tested. Which pIC50 did it give?
Answer: > 7.00

Question: `Cn1cc(-c2cccc(-c3ncc(-c4cnn(C[C@H]5CCCN5)c4)cn3)c2)cn1` [Example 71, 2-[3-(1-Methyl-1H-pyrazol-4-yl)-phenyl]-5-(1-(R)-1-pyrrolidin-2-ylmethyl-1H-pyrazol-4-yl)-pyrimidine hydrochloride] was tested. Which pIC50 did it give?
Answer: 5.30 to 6.00

Question: With `CC(C)N1C2CCCC1CC(n1cc(-c3cnc(-c4cccc(-c5cnn(C)c5)c4)nc3)cn1)C2` (stereo not shown) [Example 133, 9-Isopropyl-3-(4-{2-[3-(1-methyl-1H-pyrazol-4-yl)-phenyl]-pyrimidin-5-yl}-pyrazol-1-yl)-9-aza-bicyclo[3.3.1]nonane] as the compound, how does the pIC50 read?
Answer: 6.00 to 7.00

Question: With `Cn1cc(-c2cccc(-c3ncc(-c4cnn(CC5CCNC5)c4)cn3)c2)cn1` (stereo not shown) [Example 65, 2-[3-(1-Methyl-1H-pyrazol-4-yl)-phenyl]-5-(1-pyrrolidin-3-ylmethyl-1H-pyrazol-4-yl)-pyrimidine hydrochloride] as the compound, how does the pIC50 read?
Answer: 6.00 to 7.00

Question: `COCC(C)NC(=O)[C@H]1CC[C@H](n2cc(-c3cnc(-c4cccc(-c5cnn(C)c5)c4)nc3)cn2)CC1` (stereo partly shown) [Example 178, 4-(4-{2-[3-(1-Methyl-1H-pyrazol-4-yl)-phenyl]-pyrimidin-5-yl}-pyrazol-1-yl)-cyclohexanecarboxylic acid (2-methoxy-1-methyl-ethyl)-amide] was tested. Which pIC50 did it give?
Answer: > 7.00

Question: `Cn1cc(-c2cccc(-c3ncc(-c4cnn(C5C[C@H]6CC[C@@H](C5)N6CC(O)C(F)(F)F)c4)cn3)c2)cn1` (stereo partly drawn) [Example 118, 1,1,1-Trifluoro-3-[(1R,5S)-3-(4-{2-[3-(1-methyl-1H-pyrazol-4-yl)-phenyl]-pyrimidin-5-yl}-pyrazol-1-yl)-8-aza-bicyclo[3.2.1]oct-8-yl]-propan-2-ol] was tested. Which pIC50 did it give?
Answer: 6.00 to 7.00

Question: `Cn1cc(-c2cccc(-c3ncc(-c4cnn(CC(=O)N5C6CCC5CC(O)C6)c4)cn3)c2)cn1` (stereo not shown) [Example 127, 1-(3-Hydroxy-8-aza-bicyclo[3.2.1]oct-8-yl)-2-(4-{2-[3-(1-methyl-1H-pyrazol-4-yl)-phenyl]-pyrimidin-5-yl}-pyrazol-1-yl)-ethanone] was tested. Which pIC50 did it give?
Answer: 6.00 to 7.00

Question: With `CCCn1cc(-c2cccc(-c3ncc(-c4cnn(C5CCNCC5)c4)cn3)c2)cn1` [Example 19, 5-(1-Piperidin-4-yl-1H-pyrazol-4-yl)-2-[3-(1-propyl-1H-pyrazol-4-yl)-phenyl]-pyrimidine hydrochloride] as the compound, how does the pIC50 read?
Answer: 6.00 to 7.00

Question: With `O=C(Cn1cc(-c2cnc(-c3cccc(-c4ccncc4)c3)nc2)cn1)N1CCCC1` [Example 43, 2-{4-[2-(3-Pyridin-4-yl-phenyl)-pyrimidin-5-yl]-pyrazol-1-yl}-1-pyrrolidin-1-yl-ethanone] as the compound, how does the pIC50 read?
Answer: 5.30 to 6.00

Question: `Cn1cc(-c2cccc(-c3ncc(-c4cnn(CCNS(C)(=O)=O)c4)cn3)c2)cn1` [Example 210, N-[2-(4-{2-[3-(1-Methyl-1H-pyrazol-4-yl)-phenyl]-pyrimidin-5-yl}-pyrazol-1-yl)-ethyl]-methanesulfonamide] was tested. Which pIC50 did it give?
Answer: 5.30 to 6.00

Question: With `Cn1cc(-c2cccc(-c3ncc(-c4cnn([C@@H]5CCCN(S(C)(=O)=O)C5)c4)cn3)c2)cn1` [Example 268, 5-[(R)-1-(1-Methanesulfonyl-piperidin-3-yl)-1H-pyrazol-4-yl]-2-[3-(1-methyl-1H-pyrazol-4-yl)-phenyl]-pyrimidine] as the compound, how does the pIC50 read?
Answer: > 7.00

Question: How did the pIC50 turn out when `CN(C)CCNC(=O)[C@H]1CC[C@H](n2cc(-c3cnc(-c4cccc(-c5cnn(C)c5)c4)nc3)cn2)CC1` [Example 171, 4-(4-{2-[3-(1-Methyl-1H-pyrazol-4-yl)-phenyl]-pyrimidin-5-yl}-pyrazol-1-yl)-cyclohexanecarboxylic acid (2-dimethylamino-ethyl)-amide] was run?
Answer: > 7.00

Question: How did the pIC50 turn out when `CC(=O)N1CC[C@H](n2cc(-c3cnc(-c4cccc(-c5cnn(C)c5)c4)nc3)cn2)[C@@H](O)C1` [Example 225, 1-[(3S,4S)-3-Hydroxy-4-(4-{2-[3-(1-methyl-1H-pyrazol-4-yl)-phenyl]-pyrimidin-5-yl}-pyrazol-1-yl)-piperidin-1-yl]-ethanone] was run?
Answer: 6.00 to 7.00
